pIC50: −log10 of the molar value. Read-outs that look alike come from different tables or passages of the source.
Legend:
[1] = biological target: JH2 domain of human Tyk2 (Homo sapiens (Human), UniProt P29597); experiment: JH2 Biochemical Assay (TR-FRET probe displacement); assay type: binding
[2] = biological target: Tyk2 (Homo sapiens (Human), UniProt P29597); experiment: pSTAT4 Cell Assay (MSD, NK92 cells); assay type: cell-based
[3] = JH2 domain of human Tyk2, TR-FRET probe displacement
[4] = TR-FRET probe displacement, JH2 domain
[5] = TR-FRET probe displacement, JH2 domain of human Tyk2

Tyk2, sequence (P29597 whole entry, the tested form may be a part): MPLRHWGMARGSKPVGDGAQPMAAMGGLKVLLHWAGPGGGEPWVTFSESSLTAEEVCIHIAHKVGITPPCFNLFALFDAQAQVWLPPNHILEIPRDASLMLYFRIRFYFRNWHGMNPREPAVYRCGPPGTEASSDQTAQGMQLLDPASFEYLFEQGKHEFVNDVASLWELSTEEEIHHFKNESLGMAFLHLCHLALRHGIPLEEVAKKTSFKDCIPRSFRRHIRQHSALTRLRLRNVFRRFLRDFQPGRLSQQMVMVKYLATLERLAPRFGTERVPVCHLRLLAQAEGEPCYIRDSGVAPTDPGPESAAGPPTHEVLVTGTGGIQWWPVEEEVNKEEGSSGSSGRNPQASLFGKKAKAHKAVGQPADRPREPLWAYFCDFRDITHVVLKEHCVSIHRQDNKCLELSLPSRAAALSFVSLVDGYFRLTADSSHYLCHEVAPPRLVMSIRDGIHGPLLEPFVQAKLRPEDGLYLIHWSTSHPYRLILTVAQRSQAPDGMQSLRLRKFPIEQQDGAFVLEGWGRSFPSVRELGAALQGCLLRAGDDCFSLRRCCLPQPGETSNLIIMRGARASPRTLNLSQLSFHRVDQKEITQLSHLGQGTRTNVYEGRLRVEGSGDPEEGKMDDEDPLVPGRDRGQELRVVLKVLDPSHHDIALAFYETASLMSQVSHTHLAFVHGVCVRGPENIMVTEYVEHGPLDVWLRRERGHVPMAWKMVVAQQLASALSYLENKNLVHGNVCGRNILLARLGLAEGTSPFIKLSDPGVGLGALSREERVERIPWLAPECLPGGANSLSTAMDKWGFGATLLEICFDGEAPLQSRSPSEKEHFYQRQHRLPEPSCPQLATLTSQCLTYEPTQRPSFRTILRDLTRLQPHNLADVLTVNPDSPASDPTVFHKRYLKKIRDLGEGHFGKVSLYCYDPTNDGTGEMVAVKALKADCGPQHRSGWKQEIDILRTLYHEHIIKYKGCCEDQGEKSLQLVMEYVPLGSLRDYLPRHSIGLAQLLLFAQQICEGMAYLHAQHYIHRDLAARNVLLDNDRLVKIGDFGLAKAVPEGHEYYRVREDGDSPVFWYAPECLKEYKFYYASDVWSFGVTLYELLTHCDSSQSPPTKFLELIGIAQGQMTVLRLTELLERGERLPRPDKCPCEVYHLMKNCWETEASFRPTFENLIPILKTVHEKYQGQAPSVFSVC
JH2 domain of human Tyk2, sequence (P29597 575-876): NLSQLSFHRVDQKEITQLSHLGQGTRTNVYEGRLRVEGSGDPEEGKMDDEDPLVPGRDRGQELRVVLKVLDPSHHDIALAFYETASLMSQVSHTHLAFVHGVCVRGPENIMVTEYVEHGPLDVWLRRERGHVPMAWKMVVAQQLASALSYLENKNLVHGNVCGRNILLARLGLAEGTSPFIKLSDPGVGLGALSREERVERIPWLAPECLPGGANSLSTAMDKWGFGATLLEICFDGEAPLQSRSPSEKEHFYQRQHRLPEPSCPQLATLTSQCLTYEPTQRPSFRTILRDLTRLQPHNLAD

CC(=O)Nc1cc(Nc2cc(C)nc(C(C)(F)F)n2)c(OCC2CCC(=O)O2)cn1 (centres unmarked) [Example 499, N-(4-((2-(1,1-difluoroethyl)-6-methylpyrimidin-4-yl)amino)-5-((5-oxotetrahydrofuran-2-yl)methoxy)pyridin-2-yl)acetamide]
pIC50 [1, 3]: ≥ 8.00
pIC50 ([2]; MSD): 7.00 to 8.00

COCCN(C)Cc1ccc(-c2cnc(NC(C)=O)cc2Nc2ccnc(C(C)(F)F)n2)nc1 [Example 879, N-(4′-((2-(1,1-difluoroethyl)pyrimidin-4-yl)amino)-5-(((2-methoxyethyl)(methyl)amino)methyl)-[2,3′-bipyridin]-6′-yl)acetamide]
pIC50 [1, 4]: ≥ 8.00
pIC50 [2]: ≥ 8.00

CCc1nnc(-c2cnc(NC(C)=O)cc2Nc2ccnc(C(C)(F)F)n2)s1 [Example 714, N-(4-((2-(1,1-difluoroethyl)pyrimidin-4-yl)amino)-5-(5-ethyl-1,3,4-thiadiazol-2-yl)pyridin-2-yl)acetamide]
pIC50 [1, 3]: ≥ 8.00
pIC50 ([2]; MSD): ≥ 8.00

CCN1CCn2nc(-c3cnc(NC(C)=O)cc3Nc3cc(C)nc(C(C)(F)F)n3)cc2C1 [Example 283, N-(4-((2-(1,1-difluoroethyl)-6-methylpyrimidin-4-yl)amino)-5-(5-ethyl-4,5,6,7-tetrahydropyrazolo[1,5-a]pyrazin-2-yl)pyridin-2-yl)acetamide]
pIC50 [1, 5]: ≥ 8.00
pIC50 ([2]; MSD): ≥ 8.00

CC(=O)Nc1cc(Nc2cc(C)nc(C(C)(F)F)n2)c(-c2cc(C)cnn2)cn1 [Example 252, N-(4-((2-(1,1-difluoroethyl)-6-methylpyrimidin-4-yl)amino)-5-(5-methylpyridazin-3-yl)pyridin-2-yl)acetamide]
pIC50 [1, 5]: ≥ 8.00
pIC50 ([2]; MSD): ≥ 8.00

COc1cnc(NC(C)=O)cc1Nc1cc(-c2cc(C#N)c3nc(C)cn3c2)nc(C(C)(F)F)n1 [Example 402, N-(4-((6-(8-cyano-2-methylimidazo[1,2-a]pyridin-6-yl)-2-(1,1-difluoroethyl)pyrimidin-4-yl)amino)-5-methoxypyridin-2-yl)acetamide]
pIC50 [1, 3]: 7.00 to 8.00
pIC50 ([2]; MSD): 6.00 to 7.00

CC(=O)Nc1cc(Nc2cc(C)nc(C(C)(F)F)n2)c(-c2cnn3c2OCCC3)cn1 [Example 535, N-(4-((2-(1,1-difluoroethyl)-6-methylpyrimidin-4-yl)amino)-5-(6,7-dihydrO5H-pyrazolo[5,1-b][1,3]oxazin-3-yl)pyridin-2-yl)acetamide]
pIC50 [1, 3]: 7.00 to 8.00
pIC50 ([2]; MSD): ≤ 6.00

CC(=O)Nc1cc(Nc2ccnc(C(C)(F)F)n2)c(-c2ccc(N3CC4(CCOC4)C3)nn2)cn1 [Example 877, N-(5-(6-(6-oxa-2-azaspiro[3.4]octan-2-yl)pyridazin-3-yl)-4-((2-(1,1-difluoroethyl)pyrimidin-4-yl)amino)pyridin-2-yl)acetamide]
pIC50 [1, 4]: ≥ 8.00
pIC50 [2]: ≥ 8.00

COCc1ncc(-c2cnc(NC(C)=O)cc2Nc2cc(C)nc(C(C)(F)F)n2)s1 [Example 232, N-(4-((2-(1,1-difluoroethyl)-6-methylpyrimidin-4-yl)amino)-5-(2-(methoxymethyl)thiazol-5-yl)pyridin-2-yl)acetamide]
pIC50 [1, 5]: ≥ 8.00
pIC50 ([2]; MSD): ≥ 8.00

CC(=O)Nc1cc(Nc2cc(C)nc(C(C)(F)F)n2)c(-c2cc(C(C)(C)O)n(C)n2)cn1 [Example 272, N-(4-((2-(1,1-difluoroethyl)-6-methylpyrimidin-4-yl)amino)-5-(5-(2-hydroxypropan-2-yl)-1-methyl-1H-pyrazol-3-yl)pyridin-2-yl)acetamide]
pIC50 [1, 5]: ≥ 8.00
pIC50 ([2]; MSD): ≥ 8.00

CC(=O)Nc1cc(Nc2cc(C)nc(C(C)(F)F)n2)c(OCC2CCO2)cn1 (centres unmarked) [Example 85, N-(4-((2-(1,1-difluoroethyl)-6-methylpyrimidin-4-yl)amino)-5-(oxetan-2-ylmethoxy)pyridin-2-yl)acetamide]
pIC50 [1, 5]: ≥ 8.00
pIC50 ([2]; MSD): 7.00 to 8.00

COCCOc1ccnc(Nc2cc(NC(C)=O)ncc2-c2ccn(C)n2)n1 [Example 550, N-(4-((4-(2-methoxyethoxy)pyrimidin-2-yl)amino)-5-(1-methyl-1H-pyrazol-3-yl)pyridin-2-yl)acetamide]
pIC50 [1, 3]: ≥ 8.00
pIC50 ([2]; MSD): 6.00 to 7.00

CCc1cc(Nc2cc(NC(C)=O)ncc2-c2ccc(=O)n(C)n2)nc(C(C)(F)F)n1 [Example 831, N-(4-((2-(1,1-difluoroethyl)-6-ethylpyrimidin-4-yl)amino)-5-(1-methyl-6-oxo-1,6-dihydropyridazin-3-yl)pyridin-2-yl)acetamide]
pIC50 [1, 4]: ≥ 8.00
pIC50 [2]: ≥ 8.00

CC(=O)Nc1cc(Nc2cc(OC3CC3)nc(C(C)(F)F)n2)c(-c2cnccn2)cn1 [Example 824, N-(4-((6-cyclopropoxy-2-(1,1-difluoroethyl)pyrimidin-4-yl)amino)-5-(pyrazin-2-yl)pyridin-2-yl)acetamide]
pIC50 [1, 4]: ≥ 8.00
pIC50 [2]: 7.00 to 8.00

COCCOc1cncc(-c2cnc(NC(C)=O)cc2Nc2ccnc(C(C)(F)F)n2)n1 [Example 691, N-(4-((2-(1,1-difluoroethyl)pyrimidin-4-yl)amino)-5-(6-(2-methoxyethoxy)pyrazin-2-yl)pyridin-2-yl)acetamide]
pIC50 [1, 3]: 7.00 to 8.00
pIC50 ([2]; MSD): 6.00 to 7.00

COCc1cnn(-c2cnc(NC(C)=O)cc2Nc2cc(C)nc(C(C)(F)F)n2)c1 [Example 765, N-(4-((2-(1,1-difluoroethyl)-6-methylpyrimidin-4-yl)amino)-5-(4-(methoxymethyl)-1H-pyrazol-1-yl)pyridin-2-yl)acetamide]
pIC50 [1, 4]: ≥ 8.00
pIC50 [2]: 7.00 to 8.00

CC(=O)Nc1cc(Nc2cc(C)nc(C(C)(F)F)n2)c(OCC2CC3(CCC3)CO2)cn1 (centres unmarked) [Example 433, N-(5-((6-oxaspiro[3.4]octan-7-yl)methoxy)-4-((2-(1,1-difluoroethyl)-6-methylpyrimidin-4-yl)amino)pyridin-2-yl)acetamide]
pIC50 [1, 3]: ≥ 8.00
pIC50 ([2]; MSD): ≥ 8.00

CC(=O)Nc1cc(Nc2cc(C)nc(C(C)(F)F)n2)c(OCC2(F)CC2)cn1 [Example 99, N-(4-((2-(1,1-difluoroethyl)-6-methylpyrimidin-4-yl)amino)-5-((1-fluorocyclopropyl)methoxy)pyridin-2-yl)acetamide]
pIC50 [1, 5]: ≥ 8.00
pIC50 ([2]; MSD): ≥ 8.00

CC(=O)Nc1cc(Nc2cc(C)nc(C34COC(C3)C4)n2)c(-c2ccc(C(C)F)cn2)cn1 (centres unmarked) [Example 577, N-(4′-((2-(2-oxabicyclo[2.1.1]hexan-4-yl)-6-methylpyrimidin-4-yl)amino)-5-(1-fluoroethyl)-[2,3′-bipyridin]-6′-yl)acetamide]
pIC50 [1, 3]: ≥ 8.00
pIC50 ([2]; MSD): ≥ 8.00

CC(=O)Nc1cc(Nc2cc(C)nc(C(C)(F)F)n2)c(-c2nnc(N(C)C)s2)cn1 [Example 236, N-(4-((2-(1,1-difluoroethyl)-6-methylpyrimidin-4-yl)amino)-5-(5-(dimethylamino)-1,3,4-thiadiazol-2-yl)pyridin-2-yl)acetamide]
pIC50 [1, 5]: ≥ 8.00
pIC50 ([2]; MSD): ≥ 8.00

CC(=O)Nc1cc(Nc2cc(C)nc(C(C)(F)F)n2)c(-c2ncc(CN3CCN(C)CC3)s2)cn1 [Example 783, N-(4-((2-(1,1-difluoroethyl)-6-methylpyrimidin-4-yl)amino)-5-(5-((4-methylpiperazin-1-yl)methyl)thiazol-2-yl)pyridin-2-yl)acetamide]
pIC50 [1, 4]: ≥ 8.00
pIC50 [2]: ≥ 8.00

CCc1cc(Nc2cc(NC(C)=O)ncc2-c2cnccn2)nc(C(C)(F)F)n1 [Example 823, N-(4-((2-(1,1-difluoroethyl)-6-ethylpyrimidin-4-yl)amino)-5-(pyrazin-2-yl)pyridin-2-yl)acetamide]
pIC50 [1, 4]: ≥ 8.00
pIC50 [2]: 7.00 to 8.00

From patent US20260028365A1 (BIOGEN MA INC., priority 2022, published 2026)
